From patent US20160090351A1, “INHIBITORS OF DEUBIQUITINATING PROTEASES” (BRANDEIS UNIVERSITY, priority 2013, published 2016)

System: SMAD4
Assay: SMAD4 monoubiquitination in K562 cells by western blot
Format: cell-based, human
Description: FIG. 34 depicts data showing that diphenylcarbonates cause the accumulation of HMW-Ub and reduce the levels of Bcr-Abl in K562 cells. A. K562 cells were treated with diphenyl carbonates (50 μM) for 2 h and then assayed for the accumulation of K48-linked Ub. B. As in A, but Bcr-Abl was measured by immunoblotting with anti-Abl antibodies. C. K562 cells were treated with C17 (50 μM) in the presence and absence of bortezomib (6 μM) for 4 hours and Bcr-Abl was measured by immunblotting with anti-Abl antibodies. D. Quantitation of blot in C. Significance: DMSO relative to C17 and bortezomib p=0.002; DMSO relative to C17, p=0.03. E. K562 cells were treated with C15 for 4 hours then analyzed for SMAD4 monoubiquitination by western blot. F. Quantitation of blots in A. (N=3). See also FIG. 40.
Transfected cells were harvested 1.5 days post transfection. […] Typically clarified lysate was analyzed.

## NCc1ccc(OC(=O)Oc2ccc(Br)cc2)cc1 [Compound C15, 4-(aminomethyl)phenyl(4-bromophenyl)carbonate]
  SMAD4 monoubiquitination: increased SMAD4 monoubiquitination
